Laboratory results taken from patent publication EP0844825B1, “INSECTICIDAL N-(SUBSTITUTED ARYLMETHYL)-4- BIS(SUBSTITUTED PHENYL OR PYRIDYL)METHYL]PIPERIDINES” (FMC CORPORATION, priority 1995, dated 1996).

System: tobacco budworm (Heliothis virescens [Fabricius])
Assay: Diet test: test chemical incorporated into artificial diet of tobacco budworm larvae, 5-day exposure
Assay type: in vivo
Conditions: for IC50 / LC50 / mortality at 100 µM / pest or weed control at 100 µM: Heliothis virescens, 120 h; for IC50: negative log of the concentration that provides 50% growth inhibition, by linear regression, read-out: pl50 (converted); for IC50 / LC50 / pest or weed control at 100 µM / Percent Growth Inhibition: 5 days, * = average of more than one test; for LC50: negative log of the concentration that provides 50% mortality, read-out: pLC50 (converted); for mortality at 100 µM / pest or weed control at 100 µM: feed or water; for mortality at 100 µM: read-out: Percent Mortality; for pest or weed control at 100 µM / Percent Growth Inhibition: rate of application 4 (negative log of molar concentration in the diet), second instar larvae, 25°C; for pest or weed control at 100 µM: read-out: Percent Growth Inhibition
Method: Candidate insecticides were incorporated into an artificial diet for evaluation of insecticidal activity against the tobacco budworm (Heliothis virescens [Fabricius]) in the following manner. Stock solutions of test chemical in dimethyl sulfoxide, ranging from […], were prepared for each rate of application. One hundred microliters of each of the stock solutions was manually stirred into 50 mL of a molten (65-70°C) wheat germ-based artificial diet. The 50 mL of molten diet containing the test chemical was poured evenly into twenty wells in the outer two rows on each side of a twenty-five well, five row plastic tray. (Each well in the tray was about 1 cm in depth, with an opening of 3 cm by 4 cm at the lip.) Molten diet containing only dimethyl sulfoxide at the levels used in the test chemical-treated diet was poured into the five wells in the third (center) row of the tray. Each tray therefore contained one test chemical at a single rate of application, together with an untreated control. The rates of application, expressed as the negative log of the molar concentration, and the corresponding concentrations of the stock solution prepared for each rate are shown below:
Single second instar tobacco budworm larvae, selected at a stage of growth at which they uniformly weigh about 5 mg each, were placed in each well. Upon completion of infestation, a sheet of clear plastic was heat-sealed over the top of the tray by use of a common household flat.iron. The trays were held at 25°C at 60% relative humidity for five days in a growth chamber. Lighting was set at 14 hours of light and 10 hours of darkness. After the 5-day exposure period, mortality counts were taken, and the surviving insects were weighed. From the weights of the surviving insects that fed on the treated diet as compared to those insects that fed on the untreated diet, the percent growth inhibition caused by each test chemical was determined. […] Also, where possible, the negative log of the concentration of the test chemical that provided 50% mortality (pLC50) was determined.

Structure (SMILES)	IC50 [µM]	LC50 [µM]	mortality at 100 µM [%]	pest or weed control at 100 µM [%]	Percent Growth Inhibition [%]
COc1ccc(CCN2CCC(C(O)(c3ccc(OC(F)(F)F)cc3)c3ccc(OC(F)(F)F)cc3)CC2)cc1 [Compound 2, N-[2-(4-methoxyphenyl)ethyl]-4-[bis(4-trifluoromethoxyphenyl)hydroxymethyl]piperidine]	2.51	> 100	25	98	–
CC(=O)Nc1ccc(CN2CCC(C(O)(c3ccc(OC(F)(F)F)cc3)c3ccc(OC(F)(F)F)cc3)CC2)cc1 [Compound 3, N-[4-(methylcarbonylamino)phenylmethyl]-4-[bis(4-trifluoromethoxyphenyl)hydroxymethyl]piperidine]	20	–	0	95	–
Cn1ccc(-c2ccc(CN3CCC(C(O)(c4ccc(OC(F)(F)F)cc4)c4ccc(OC(F)(F)F)cc4)CC3)cc2)c1 [Compound 4]	–	–	100	–	–
Cc1cc(C)n(-c2ccc(CN3CCC(C(O)(c4ccc(OC(F)(F)F)cc4)c4ccc(OC(F)(F)F)cc4)CC3)cc2)n1 [Compound 5]	–	–	100	–	–
Cc1noc(-c2ccc(CN3CCC(C(O)(c4ccc(OC(F)(F)F)cc4)c4ccc(OC(F)(F)F)cc4)CC3)cc2)n1 [Compound 6]	–	–	100	–	–
Cn1nnnc1-c1ccc(CN2CCC(C(O)(c3ccc(OC(F)(F)F)cc3)c3ccc(OC(F)(F)F)cc3)CC2)cc1 [Compound 8, N-[4-(1-methyltetrazol-5-yl)phenylmethyl]-4-[bis(4-trifluoromethoxyphenyl)hydroxymethyl]piperidine]	31.6	–	0	79	–
Cn1ncn(-c2ccc(CN3CCC(C(O)(c4ccc(C(F)(F)F)cc4)c4ccc(C(F)(F)F)cc4)CC3)cc2)c1=O [Compound 12, N-[4-(4,5-dihydro-1-methyl-5-oxo-1H-1,2,4-triazol-4-yl)phenylmethyl]-4-[bis(4-trifluoromethylphenyl)hydroxymethyl]piperidine]	3.98	> 100	35	98	–
OC(c1ccc(OC(F)(F)F)cc1)(c1ccc(OC(F)(F)F)cc1)C1CCN(Cc2ccc(-c3csnn3)cc2)CC1 [Compound 14]	3.16	31.6	100	–	99
Cn1nnc(-c2ccc(C[N+]3([O-])CCC(C(O)(c4ccc(OC(F)(F)F)cc4)c4ccc(OC(F)(F)F)cc4)CC3)cc2)n1 (stereo not drawn) [Compound 15]	–	–	100	–	–
CC(C)c1cnc(-c2ccc(CN3CCC(C(O)(c4ccc(C(F)(F)F)cc4)c4ccc(C(F)(F)F)cc4)CC3)cc2)o1 [Compound 19]	–	–	90	–	–
O=C1OCCN1c1ccc(CN2CCC(C(O)(c3ccc(C(F)(F)F)cc3)c3ccc(C(F)(F)F)cc3)CC2)cc1 [Compound 20]	–	–	10	–	–
O=C1OCCN1c1ccc(C[N+]2([O-])CCC(C(O)(c3ccc(C(F)(F)F)cc3)c3ccc(C(F)(F)F)cc3)CC2)cc1 (stereo not drawn) [Compound 21]	–	–	10	–	–
CC1CN(c2ccc(CN3CCC(C(O)(c4ccc(C(F)(F)F)cc4)c4ccc(C(F)(F)F)cc4)CC3)cc2)C(=O)O1 (stereo not drawn) [Compound 22]	–	–	35	–	–
CC1CN(c2ccc(C[N+]3([O-])CCC(C(O)(c4ccc(C(F)(F)F)cc4)c4ccc(C(F)(F)F)cc4)CC3)cc2)C(=O)O1 (stereo not drawn) [Compound 23]	–	–	65	–	–
CC1CN(C(=O)c2ccc(CN3CCC(C(O)(c4ccc(C(F)(F)F)cc4)c4ccc(C(F)(F)F)cc4)CC3)cc2)C(=O)O1 (stereo not drawn) [Compound 24]	31.6	> 316	0	–	86
Cn1cnc(-c2ccc(CN3CCC(C(O)(c4ccc(C(F)(F)F)cc4)c4ccc(C(F)(F)F)cc4)CC3)cc2)n1 [Compound 27]	–	–	100	–	–
Cn1cnc(-c2ccc(C[N+]3([O-])CCC(C(O)(c4ccc(C(F)(F)F)cc4)c4ccc(C(F)(F)F)cc4)CC3)cc2)n1 (stereo not drawn) [Compound 28]	–	–	100	–	–
OC(c1ccc(C(F)(F)F)cc1)(c1ccc(C(F)(F)F)cc1)C1CCN(Cc2ccc(Oc3nsnc3Cl)cc2)CC1 [Compound 29]	–	–	60	–	–
[O-][N+]1(Cc2ccc(Oc3nsnc3Cl)cc2)CCC(C(O)(c2ccc(C(F)(F)F)cc2)c2ccc(C(F)(F)F)cc2)CC1 (stereo not drawn) [Compound 30]	–	–	40	–	–
CC(C)n1nnc(-c2ccc(CN3CCC(C(O)(c4ccc(C(F)(F)F)cc4)c4ccc(C(F)(F)F)cc4)CC3)cc2)n1 [Compound 35]	–	–	100	–	–
CC(C)n1nnc(-c2ccc(C[N+]3([O-])CCC(C(O)(c4ccc(C(F)(F)F)cc4)c4ccc(C(F)(F)F)cc4)CC3)cc2)n1 (stereo not drawn) [Compound 36]	–	–	100	–	–

Structure (SMILES)	IC50 [µM]	LC50 [µM]	mortality at 100 µM [%]	pest or weed control at 100 µM [%]	Percent Growth Inhibition [%]
CC(C)(C)n1nnc(-c2ccc(CN3CCC(C(O)(c4ccc(C(F)(F)F)cc4)c4ccc(C(F)(F)F)cc4)CC3)cc2)n1 [Compound 37]	–	–	100	–	–
OC(c1ccc(C(F)(F)F)cc1)(c1ccc(C(F)(F)F)cc1)C1CCN(Cc2ccc(-c3nnn(C(F)F)n3)cc2)CC1 [Compound 38]	0.631	2.51	100	–	100
[O-][N+]1(Cc2ccc(-c3nnn(C(F)F)n3)cc2)CCC(C(O)(c2ccc(C(F)(F)F)cc2)c2ccc(C(F)(F)F)cc2)CC1 (stereo not drawn) [Compound 39]	–	–	100	–	–
OC(c1ccc(C(F)(F)F)cc1)(c1ccc(C(F)(F)F)cc1)C1CCN(Cc2ccc(-c3nnn(CCCF)n3)cc2)CC1 [Compound 40]	0.631	3.98	100	–	100
COCn1nnc(-c2ccc(CN3CCC(C(O)(c4ccc(C(F)(F)F)cc4)c4ccc(C(F)(F)F)cc4)CC3)cc2)n1 [Compound 41]	–	–	100	–	–
COCn1nnc(-c2ccc(C[N+]3([O-])CCC(C(O)(c4ccc(C(F)(F)F)cc4)c4ccc(C(F)(F)F)cc4)CC3)cc2)n1 (stereo not drawn) [Compound 42]	–	–	100	–	–
OC(c1ccc(C(F)(F)F)cc1)(c1ccc(C(F)(F)F)cc1)C1CCN(Cc2ccc(-c3ccccn3)cc2)CC1 [Compound 43]	≤ 0.316	3.16	100	–	100
[O-][N+]1(Cc2ccc(-c3ccccn3)cc2)CCC(C(O)(c2ccc(C(F)(F)F)cc2)c2ccc(C(F)(F)F)cc2)CC1 (stereo not drawn) [Compound 44]	–	–	100	–	–
[O-][n+]1ccccc1-c1ccc(CN2CCC(C(O)(c3ccc(C(F)(F)F)cc3)c3ccc(C(F)(F)F)cc3)CC2)cc1 [Compound 45]	–	–	100	–	–
[O-][n+]1ccccc1-c1ccc(C[N+]2([O-])CCC(C(O)(c3ccc(C(F)(F)F)cc3)c3ccc(C(F)(F)F)cc3)CC2)cc1 (stereo not drawn) [Compound 46]	–	–	100	–	–
OC(c1ccc(C(F)(F)F)cc1)(c1ccc(C(F)(F)F)cc1)C1CCN(Cc2ccc(-c3ccc(Cl)cn3)cc2)CC1 [Compound 47]	31.6	31.6	100	–	100
[O-][N+]1(Cc2ccc(-c3ccc(Cl)cn3)cc2)CCC(C(O)(c2ccc(C(F)(F)F)cc2)c2ccc(C(F)(F)F)cc2)CC1 (stereo not drawn) [Compound 48]	–	–	85	–	–
Cc1cccc(-c2ccc(CN3CCC(C(O)(c4ccc(C(F)(F)F)cc4)c4ccc(C(F)(F)F)cc4)CC3)cc2)n1 [Compound 49]	–	–	100	–	–
Cc1cccc(-c2ccc(C[N+]3([O-])CCC(C(O)(c4ccc(C(F)(F)F)cc4)c4ccc(C(F)(F)F)cc4)CC3)cc2)n1 (stereo not drawn) [Compound 50]	–	–	100	–	–
Cc1ccc(-c2ccc(CN3CCC(C(O)(c4ccc(C(F)(F)F)cc4)c4ccc(C(F)(F)F)cc4)CC3)cc2)nc1 [Compound 51]	–	–	100	–	–
OC(c1ccc(C(F)(F)F)cc1)(c1ccc(C(F)(F)F)cc1)C1CCN(Cc2ccc(Oc3ccccn3)cc2)CC1 [Compound 53]	–	–	100	–	–
[O-][N+]1(Cc2ccc(Oc3ccccn3)cc2)CCC(C(O)(c2ccc(C(F)(F)F)cc2)c2ccc(C(F)(F)F)cc2)CC1 (stereo not drawn) [Compound 54]	–	–	100	–	–
[O-][n+]1ccccc1Oc1ccc(CN2CCC(C(O)(c3ccc(C(F)(F)F)cc3)c3ccc(C(F)(F)F)cc3)CC2)cc1 [Compound 55]	3.16	79.4	55	–	100
[O-][n+]1ccccc1Oc1ccc(C[N+]2([O-])CCC(C(O)(c3ccc(C(F)(F)F)cc3)c3ccc(C(F)(F)F)cc3)CC2)cc1 (stereo not drawn) [Compound 56]	–	–	100	–	–
Cc1cccnc1Oc1ccc(CN2CCC(C(O)(c3ccc(C(F)(F)F)cc3)c3ccc(C(F)(F)F)cc3)CC2)cc1 [Compound 57]	0.794	7.94	100	–	100
